Structures can show the parent of a compound that is named as a salt.
Legend:
[1] = system: quiescent TG1 GSCs; conditions: primary screen, 50 μM, 24 h
Method: (§1) Proliferating or quiescent TG1 GSCs were seeded (30 000 and 40 000 viable cells/well, respectively) into 96-well opaque bottom plates (Greiner) with the Biomek FX robot (Beckman Coulter). Each compound from the Prestwick Library was then added (final concentration: 50 μM; 1% DMSO). Each molecule was tested once. Negative control wells (12/96 per assay plate) contained cells treated with 1% DMSO (final concentration) and positive control wells (4/96 per assay plate) contained cells treated with the fungal toxin ophiobolin A (Sigma Aldrich) at 50 μM with 1% DMSO. […] Luminescence in each well was measured with the Victor3 plate reader (PerkinElmer).
(§2) Relative ATP levels in each well were determined by calculating the percentage of luminescent signal in the well with respect to the average signal measured in negative control wells.
(§3) Primary screen hits were further tested in duplicate, at two concentrations (50 and 5 μM) on proliferating and quiescent TG1 GSCs. Cell plating and treatment with compounds were as for the primary screen. Hit selection/confirmation criteria for quiescent cells were as described above.

[2] = system: proliferating TG1 GSCs; conditions: primary screen, 50 μM, 24 h
Method: as §1, §2, §3

Compound	Activity on quiescent TG1 GSCs (hit compounds reducing ATP levels) [1]	also measured
(S)-(-)-Atenolol	–	Activity on quiescent TG1 CSCs (hit compounds increasing ATP levels) [1]: yes
Cc1cc2c(C(C)C)c(O)c(O)c(C=O)c2c(O)c1-c1c(C)cc2c(C(C)C)c(O)c(O)c(C=O)c2c1O [Gossypol]	yes	Activity on proliferating TG1 GSCs (hit compounds reducing ATP levels) [2]: yes
Br.C[N+]1([O-])[C@@H]2CC(OC(=O)[C@H](CO)c3ccccc3)C[C@H]1[C@@H]1O[C@@H]12 (stereo partly drawn) [Scopolamin-N-oxide hydrobromide]	–	Activity on quiescent TG1 CSCs (hit compounds increasing ATP levels) [1]: yes
C[C@@H]1O[C@@H](O[C@@H]2C=C3CC[C@@H]4[C@H](CC[C@]5(C)[C@@H](c6ccc(=O)oc6)CC[C@]45O)[C@@]3(C)CC2)[C@H](O)[C@H](O)[C@H]1O [Proscillaridin A]	yes	–
Meclocycline sulfosalicylate	yes	–
O=c1c2ccccc2[se]n1-c1ccccc1 [Ebselen]	yes	–
CC[C@H](c1ccc(O)cc1)[C@@H](CC)c1ccc(O)cc1 [Hexestrol]	yes	–
C[C@H]1O[C@@H](O[C@H]2[C@@H](O)C[C@H](O[C@H]3[C@@H](O)C[C@H](O[C@H]4CC[C@@]5(C)[C@H](CC[C@@H]6[C@@H]5C[C@@H](O)[C@]5(C)[C@@H](C7=CC(=O)OC7)CC[C@]65O)C4)O[C@@H]3C)O[C@@H]2C)C[C@H](O)[C@@H]1O [Digoxin]	–	Activity on proliferating TG1 GSCs (hit compounds reducing ATP levels) [2]: yes
COc1cc2nc(N3CCN(C(=O)C4COc5ccccc5O4)CC3)nc(N)c2cc1OC (stereo not drawn) [Doxazosin mesylate]	yes	–
C[C@@H]1O[C@@H](O[C@H]2C[C@@H](O)[C@]3(CO)[C@H]4[C@H](O)C[C@]5(C)[C@@H](C6=CC(=O)OC6)CC[C@]5(O)[C@@H]4CC[C@]3(O)C2)[C@H](O)[C@H](O)[C@H]1O.O.O.O.O.O.O.O.O [Strophantine octahydrate]	yes	–
OCCN1CCN(CCCN2c3ccccc3Sc3ccc(Cl)cc32)CC1 [Perphenazine]	–	Activity on proliferating TG1 GSCs (hit compounds reducing ATP levels) [2]: yes
CN(C)[C@@H]1C(O)=C(C(N)=O)C(=O)[C@@]2(O)C(O)=C3C(=O)c4c(O)ccc(Cl)c4[C@@H](O)[C@H]3C[C@@H]12.Cl [Dimeclocycline hydrochloride]	–	Activity on proliferating TG1 GSCs (hit compounds reducing ATP levels) [2]: yes
CCCCCCC[N+](CC)(CC)CCCCc1ccc(Cl)cc1.Cc1ccc(S(=O)(=O)[O-])cc1 [Clofilium tosylate]	yes	–
Nc1ncnc2c1ncn2[C@@H]1O[C@@H]2COP(=O)(O)O[C@H]2[C@H]1O [Cyclic AMP]	–	Activity on proliferating TG1 CSCs (hit compounds increasing ATP levels) [2]: yes
C[C@H](CCC(=O)O)[C@H]1CC[C@H]2[C@@H]3[C@@H](O)C[C@@H]4C[C@H](O)CC[C@]4(C)[C@H]3CC[C@]12C [Urosiol]	–	Activity on proliferating TG1 CSCs (hit compounds increasing ATP levels) [2]: yes
O=C(Nc1ccc([N+](=O)[O-])cc1Cl)c1cc(Cl)ccc1O [Niclosamide]	yes	–
CCCCCC[C@H]1C(=O)O[C@H](C)[C@H](NC(=O)c2cccc(NC=O)c2O)C(=O)O[C@@H](C)[C@@H]1OC(=O)CC(C)C [Antimycin A]	yes	–
CSc1ccc2c(c1)N(CCC1CCCCN1C)c1ccccc1S2 (stereo not drawn) [Thioridazine hydrochloride]	–	Activity on proliferating TG1 GSCs (hit compounds reducing ATP levels) [2]: yes
O=C(O)c1ccccc1Nc1cccc(C(F)(F)F)c1 [Flufenamic acid]	yes	–
CC(COc1ccccc1)N(CCCl)Cc1ccccc1 (stereo not drawn) [Phenoxybenzamine hydrochloride]	–	Activity on proliferating TG1 CSCs (hit compounds increasing ATP levels) [2]: yes
C[C@]12CC[C@H]3[C@@H](CC[C@]4(O)C[C@@H](O)CC[C@]34C=O)[C@@]1(O)CC[C@@H]2C1=CC(=O)OC1 [Strophanthidin]	yes	–
CCN1CCN(C(=O)N[C@@H](C(=O)N[C@@H]2C(=O)N3[C@@H]2SC(C)(C)[C@@H]3C(=O)O)c2ccccc2)C(=O)C1=O [Piperacillin sodium salt]	–	Activity on proliferating TG1 GSCs (hit compounds reducing ATP levels) [2]: yes
c1ccc2c(c1)OCC(C1=NCCN1)O2 (stereo not drawn) [Idazoxan hydrochloride]	–	Activity on quiescent TG1 CSCs (hit compounds increasing ATP levels) [1]: yes
CCCCN(CCCC)CCC(O)c1cc2c(Cl)cc(Cl)cc2c2cc(C(F)(F)F)ccc12 (stereo not drawn) [Halofantrine hydrochloride]	yes	–
Oc1c(I)cc(Cl)c2cccnc12 [Clioquinol]	–	Activity on proliferating TG1 GSCs (hit compounds reducing ATP levels) [2]: yes
COC(=O)[C@H]1[C@H]2C[C@@H]3c4[nH]c5cc(OC)ccc5c4CCN3C[C@H]2C[C@@H](OC(=O)/C=C/c2cc(OC)c(OC)c(OC)c2)[C@@H]1OC [Rescinnamin]	yes	–
